Earlier results on 1 compound are cited in US5093372A, “Novel pharmaceutical composition comprising exifone and water-soluble polymer” (Fujisawa Pharmaceutical Co. Inc., priority 1987, dated 1992).

SMILES strings stand for the structures.

The conditions of series [1]: orally administered as a conventional pharmaceutical composition.

With `O=C(c1cc(O)c(O)c(O)c1)c1ccc(O)c(O)c1O` [exifone], the “solubility in water (in words)” value was “sparingly soluble in water”. In addition, in series [1], the “absorption into blood circulation (in words)” value is on record as “poor” and the “bioavailability (in words)” value is listed as “low”. Moreover, under “about”, the “saturated solubility in water” value was 70 to 80 µg/mL.
